Assay results taken from patent publication US10160747B2, “Compounds and methods for kinase modulation, and indications therefor” (Plexxikon Inc., priority 2016, dated 2018).

What was measured:
FLT3-D835Y = molecular target: T1, FLT3-D835Y (Homo sapiens, UniProt P36888, D835Y); assay: FLT3-D835Y recombinant enzyme kinase assay (AlphaScreen); type: biochemical; details: 8 pt, GMean
T1 construct: purchased Invitrogen PV3967
T1 sequence (P36888 27-993 D835Y): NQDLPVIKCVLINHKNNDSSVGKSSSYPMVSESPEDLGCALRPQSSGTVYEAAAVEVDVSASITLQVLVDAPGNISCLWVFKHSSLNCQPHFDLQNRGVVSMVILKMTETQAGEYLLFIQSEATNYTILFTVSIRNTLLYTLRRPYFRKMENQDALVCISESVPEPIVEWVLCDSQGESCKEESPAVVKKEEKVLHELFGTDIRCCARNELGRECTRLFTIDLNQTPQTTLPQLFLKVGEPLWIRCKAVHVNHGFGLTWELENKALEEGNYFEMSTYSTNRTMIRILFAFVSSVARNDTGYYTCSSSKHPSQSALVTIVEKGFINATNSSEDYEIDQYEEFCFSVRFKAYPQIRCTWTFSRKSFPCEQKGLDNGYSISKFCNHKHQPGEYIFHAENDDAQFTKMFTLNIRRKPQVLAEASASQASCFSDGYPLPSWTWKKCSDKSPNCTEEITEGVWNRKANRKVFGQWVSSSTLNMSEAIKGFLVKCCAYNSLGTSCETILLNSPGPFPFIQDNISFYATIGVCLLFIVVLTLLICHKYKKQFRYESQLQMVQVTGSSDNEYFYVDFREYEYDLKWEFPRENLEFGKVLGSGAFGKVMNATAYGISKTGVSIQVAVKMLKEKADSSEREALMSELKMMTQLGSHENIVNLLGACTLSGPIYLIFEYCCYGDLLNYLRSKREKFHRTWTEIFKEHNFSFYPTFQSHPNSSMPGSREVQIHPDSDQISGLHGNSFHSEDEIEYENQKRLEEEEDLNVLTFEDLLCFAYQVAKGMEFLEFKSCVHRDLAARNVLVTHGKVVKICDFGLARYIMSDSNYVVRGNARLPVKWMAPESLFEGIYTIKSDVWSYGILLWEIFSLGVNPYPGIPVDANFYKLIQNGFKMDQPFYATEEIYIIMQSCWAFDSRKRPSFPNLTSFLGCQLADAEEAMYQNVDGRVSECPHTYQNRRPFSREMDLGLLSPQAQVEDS
Summary of the method: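 Recombinant enzyme phosphorylated biotinylated poly(Glu4-Tyr) peptide (30 nM final) with ATP at 10 μM for FLT3-ITD and FLT3-D835Y or 100 μM for c-KIT. Phosphopeptide was detected by AlphaScreen with streptavidin donor and anti-phosphotyrosine (PY20) acceptor beads (10 μg/mL), read at 580 nm, for IC50 determination.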

[1] = system: MOLM-14 D835Y (endogenous FLT3 ITD and transfected FLT3 D835Y); assay: MOLM-14 D835Y cell proliferation assay (CellTiter-Glo); type: cell-based; details: Homo sapiens, MOLM-14, 72 h; 3 d growth, GMean
Summary of the method: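 MOLM-14 cells (FLT3 ITD) carrying D835Y or F691L, 1×10^4 cells/well, eight 1:3 dilutions from 1 μM final, 0.2% DMSO, 3 days at 37 °C, 5% CO2. Viability by CellTiter-Glo luminescence (ATP content); IC50 from concentration-response.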

| Compound | IC50 (FLT3-D835Y) [µM] | IC50 [1] [µM] |
| --- | --- | --- |
| COCCn1cc(Nc2ncc(-c3ccc(CC(=O)Nc4cncc(C(F)(F)F)c4)cc3)cn2)cn1 [Compound P-0178, 2-[4-[2-[[1-(2-methoxyethyl)pyrazol-4-yl]amino]pyrimidin-5-yl]phenyl]-N-[5-(trifluoromethyl)-3-pyridyl]acetamide] | 0.0001 to 10 | 0.0001 to 10 |
| Cn1cnc(Nc2ncc(-c3ccc(CC(=O)Nc4cnc(F)c(C(C)(F)F)c4)cc3)cn2)c1 [Compound P-0168, N-[5-(1,1-difluoroethyl)-6-fluoro-3-pyridyl]-2-[4-[2-[(1-methylimidazol-4-yl)amino]pyrimidin-5-yl]phenyl]acetamide] | 0.0001 to 10 | 0.0001 to 10 |
| Cc1ncc(NC(=O)Cc2ccc(-c3cnc(Nc4cn(C)cn4)nc3)cc2)cc1C(F)(F)F [Compound P-0150, 2-[4-[2-[(1-methylimidazol-4-yl)amino]pyrimidin-5-yl]phenyl]-N-[6-methyl-5-(trifluoromethyl)-3-pyridyl]acetamide] | 0.0001 to 10 | 0.0001 to 10 |
| Cn1cnc(Nc2ncc(-c3ccc(CC(=O)Nc4cc(C(F)(F)F)ccn4)c(F)c3)cn2)c1 [Compound P-0096, 2-[2-fluoro-4-[2-[(1-methylimidazol-4-yl)amino]pyrimidin-5-yl]phenyl]-N-[4-(trifluoromethyl)-2-pyridyl]acetamide] | 0.0001 to 10 | 0.0001 to 10 |
| Cn1cc(Nc2ncc(-c3ccc(CC(=O)Nc4ccnc(C(F)(F)F)c4)cc3)cn2)cn1 [Compound P-0134, 2-[4-[2-[(1-methylpyrazol-4-yl)amino]pyrimidin-5-yl]phenyl]-N-[2-(trifluoromethyl)-4-pyridyl]acetamide] | 0.0001 to 10 | 0.0001 to 10 |
| Cn1cc(Nc2ncc(-c3ccc(CC(=O)Nc4cccc(C(F)(F)F)n4)cc3)cn2)cn1 [Compound P-0152, 2-[4-[2-[(1-methylpyrazol-4-yl)amino]pyrimidin-5-yl]phenyl]-N-[6-(trifluoromethyl)-2-pyridyl]acetamide] | 0.0001 to 10 | 0.0001 to 10 |
| Cn1cc(Nc2ncc(-c3ccc(CC(=O)Nc4cc(Cl)c(C5CC5)cn4)cc3)cn2)cn1 [Compound P-0164, N-(4-chloro-5-cyclopropyl-2-pyridyl)-2-[4-[2-[(1-methylpyrazol-4-yl)amino]pyrimidin-5-yl]phenyl]acetamide] | 0.0001 to 10 | 0.0001 to 10 |
| Cn1cc(Nc2ncc(-c3ccc(CC(=O)Nc4cnc(Cl)c(C(F)(F)F)c4)c(F)c3)cn2)cn1 [Compound P-0092, N-[6-chloro-5-(trifluoromethyl)-3-pyridyl]-2-[2-fluoro-4-[2-[(1-methylpyrazol-4-yl)amino]pyrimidin-5-yl]phenyl]acetamide] | 0.0001 to 10 | 0.0001 to 10 |
| O=C(Cc1ccc(-c2cnc3[nH]c(-c4ccccc4)cc3c2)cc1F)Nc1ccnc(C(F)(F)F)c1 [Compound P-0004, 2-[2-fluoro-4-(2-phenyl-1H-pyrrolo[2,3-b]pyridin-5-yl)phenyl]-N-[2-(trifluoromethyl)-4-pyridyl]acetamide] | 0.0001 to 10 | 0.0001 to 10 |
| COc1ncc(NC(=O)Cc2ccc(-c3cnc(Nc4cnn(C)c4)nc3)cc2)cc1C(F)(F)F [Compound P-0138, N-[6-methoxy-5-(trifluoromethyl)-3-pyridyl]-2-[4-[2-[(1-methylpyrazol-4-yl)amino]pyrimidin-5-yl]phenyl]acetamide] | 0.0001 to 10 | 0.0001 to 10 |
| Cc1ncc(NC(=O)Cc2ccc(-c3cnc(Nc4cnn(C)c4)nc3)cc2F)cc1C(F)(F)F [Compound P-0091, 2-[2-fluoro-4-[2-[(1-methylpyrazol-4-yl)amino]pyrimidin-5-yl]phenyl]-N-[6-methyl-5-(trifluoromethyl)-3-pyridyl]acetamide] | 0.0001 to 10 | 0.0001 to 10 |
| Cn1cc(Nc2ncc(-c3ccc(CC(=O)Nc4cnc(F)c(C(C)(F)F)c4)cc3)cn2)cn1 [Compound P-0104, N-[5-(1,1-difluoroethyl)-6-fluoro-3-pyridyl]-2-[4-[2-[(1-methylpyrazol-4-yl)amino]pyrimidin-5-yl]phenyl]acetamide] | 0.0001 to 10 | 0.0001 to 10 |
| Cc1ncc(NC(=O)Cc2cc(F)c(-c3cnc4[nH]nc(C)c4c3)cc2F)cc1C(F)(F)F [Compound P-0175, 2-(2,5-difluoro-4-(3-methyl-1H-pyrazolo[3,4-b]pyridin-5-yl)phenyl)-N-(6-methyl-5-(trifluoromethyl)pyridin-3-yl)acetamide] | 0.0001 to 10 | 0.0001 to 10 |
| Cn1cc(Nc2ncc(-c3ccc(CC(=O)Nc4ccc(S(C)(=O)=O)cc4)cc3)cn2)cn1 [Compound P-0156, 2-[4-[2-[(1-methylpyrazol-4-yl)amino]pyrimidin-5-yl]phenyl]-N-(4-methylsulfonylphenyl)acetamide] | 0.0001 to 10 | 0.0001 to 10 |
| Cn1cnc(Nc2ncc(-c3ccc(CC(=O)Nc4cc(C(C)(F)F)ccn4)c(F)c3)cn2)c1 [Compound P-0102, N-[4-(1,1-difluoroethyl)-2-pyridyl]-2-[2-fluoro-4-[2-[(1-methylimidazol-4-yl)amino]pyrimidin-5-yl]phenyl]acetamide] | 0.0001 to 10 | 0.0001 to 10 |
| Cn1cc(Nc2ncc(-c3ccc(CC(=O)Nc4cnc(F)c(C(C)(F)F)c4)c(F)c3)cn2)cn1 [Compound P-0105, N-[5-(1,1-difluoroethyl)-6-fluoro-3-pyridyl]-2-[2-fluoro-4-[2-[(1-methylpyrazol-4-yl)amino]pyrimidin-5-yl]phenyl]acetamide] | 0.0001 to 10 | 0.0001 to 10 |
| Cn1cc(Nc2ncc(-c3ccc(CC(=O)Nc4cccc(S(C)(=O)=O)c4)cc3)cn2)cn1 [Compound P-0155, 2-[4-[2-[(1-methylpyrazol-4-yl)amino]pyrimidin-5-yl]phenyl]-N-(3-methylsulfonylphenyl)acetamide] | 0.0001 to 10 | 0.0001 to 10 |
| O=C(Cc1ccc(-c2cnc3[nH]c(-c4ccccc4)cc3c2)c(F)c1)Nc1cccc(C(F)(F)F)c1 [Compound P-0003, 2-[3-fluoro-4-(2-phenyl-1H-pyrrolo[2,3-b]pyridin-5-yl)phenyl]-N-[3-(trifluoromethyl)phenyl]acetamide] | 0.0001 to 10 | 0.0001 to 10 |
| Cn1cc(Nc2ncc(-c3ccc(CC(=O)Nc4cnnc(Cl)c4)cc3)cn2)cn1 [Compound P-0151, N-(6-chloropyridazin-4-yl)-2-[4-[2-[(1-methylpyrazol-4-yl)amino]pyrimidin-5-yl]phenyl]acetamide] | 0.0001 to 10 | 0.0001 to 10 |
| Cc1ncc(NC(=O)Cc2ccc(-c3cnc4[nH]nc(C)c4c3)c(F)c2)cc1C(F)(F)F [Compound P-0172, 2-[3-fluoro-4-(3-methyl-1H-pyrazolo[3,4-b]pyridin-5-yl)phenyl]-N-[6-methyl-5-(trifluoromethyl)-3-pyridyl]acetamide] | 0.0001 to 10 | 0.0001 to 10 |
| Cn1cc(Nc2ncc(-c3ccc(CC(=O)Nc4cncc(C(C)(F)F)c4)cc3)cn2)cn1 [Compound P-0144, N-[5-(1,1-difluoroethyl)-3-pyridyl]-2-[4-[2-[(1-methylpyrazol-4-yl)amino]pyrimidin-5-yl]phenyl]acetamide] | 0.0001 to 10 | 0.0001 to 10 |
| COc1ncc(NC(=O)Cc2ccc(-c3cnc(Nc4cn(C)cn4)nc3)cc2)cc1C(F)(F)F [Compound P-0149, N-[6-methoxy-5-(trifluoromethyl)-3-pyridyl]-2-[4-[2-[(1-methylimidazol-4-yl)amino]pyrimidin-5-yl]phenyl]acetamide] | 0.0001 to 10 | 0.0001 to 10 |
